Data from US20080233221A1, “Prostate cancer and benign prostatic hyperplasia treatments” (State of Oregon, priority 2007, published 2008).

Tests used:
Assay type in all cases: cell-based, human
[1] = system: BPH-1 cells; experiment: Multicaspase assay (SR-VAD-FMK/7AAD flow cytometry) in BPH-1 cells; conditions: 48 h
Experimental: (§1) FIG. 3 sets forth data relating to xanthohumol and xanthoaurenol induction of caspase activity in BPH-1 and PC-3 cells. Cells were treated with XN or XAL for 48 h. Induction of apoptosis was measured using a multi-caspase assay. SR-VAD-FMK covalently binds caspases and positively stained cells were assessed by flow cytometry as a measure of caspase activation. 7-Amino-actinomycin D (7AAD), a nucleotide stain that only stains cells when membrane integrity is compromised, was used to differentiate between early and late apoptotic cells. SR-VAD-FMK(+) 7AAD(−) cells are undergoing early-mid apoptosis, […] late stage apoptotic cells. Values are mean±SD, n=3. *P<0.05, **P<0.01.
(§2) At various times after treatment with XN or XAL, adherent and floating cells were collected for analysis. Apoptosis was assessed using a flow cytometry based nexin and multicaspase assay kits (Guava Technologies, Burlingame, Calif.). The nexin assay is based on measurement of externalization of phosphatidyl serine, a common characteristic of cells undergoing apoptosis. The multicaspase assay is based on measurement of caspase enzymes activated during apoptosis. Cells were trypsinized, washed in D-PBS and stained with Annexin V, sulforhodamine-valyl-alanyl-aspartyl-fluoromethyl-ketone (SR-VAD-FMK), and 7-amino-actinomycin D (7AAD) according to the manufactures instructions. Cell populations were quantified using Guava personal cytometer (Guava Technologies, Burlingame, Calif.).

[2] = system: BPH-1 cells; experiment: Cell viability by MTT assay in BPH-1 cells; conditions: BPH-1 cells, 48 h; for cell viability (number of viable cells): MTT
Experimental: (§3) Human benign prostate hyperplasia epithelial cells (BPH-1) were obtained from Dr. Simon W. Hayward (Vanderbilt University, Nashville, Tenn.) and malignant androgen-independent prostate cancer epithelial cells (PC-3) were obtained from American Type Tissue Collection (Manassas, Va.). Cells were grown and maintained in RPMI 1640 with glutamine (Mediatech, Inc., Herndon, Va.) supplemented with 5% (BPH-1) or 10% (PC-3) fetal bovine serum (Hyclone, Logan, Utah) and 1% penicillin-streptomycin (Mediatech, Inc., Herndon, Va.). All cell types were maintained in 5% CO2 at 37° C.
(§4) XN was isolated from hop cones as described previously (Stevens et al., J. Chromatogr. A 832 (1999) 97-107). Its oxidation product, xanthoaurenol (XAL), was prepared from xanthohumol (XN) by treatment with peroxynitrite. The structure of XAL was determined by mass spectrometry, NMR spectroscopy and X-ray diffraction analysis. Prenylflavonoids were dissolved in 100% methanol and were added to the culture medium at a final concentration of 2.5-200 μmol/L, depending on desired treatment. All treatments were done at approximately 50-70% confluency. As a control, methanol was added to culture medium equivalent to hop treatment.
(§5) Cells were seeded into 24-well plates (50,000 cells per well). After 24 h, cells were treated with either XN or XAL as described above. Cell viability was evaluated by MTT assay as described by Mossmann et al., J. Immunol. Methods 65 (1983) 55-63. Production of formazan product was detected in a Molecular Devices SpectraMax (Molecular Devices, Sunnyvale, Calif.) at 580 nm.

[3] = system: pro-apoptotic proteins Bax and p53 and anti-apoptotic protein Bcl-2; experiment: Western blot of Bax, p53 and Bcl-2 in whole cell lysates of BPH-1 cells; conditions: for expression of pro-apoptotic protein Bax / expression of pro-apoptotic protein p53: 10 and 20 μM; for expression of pro-apoptotic protein Bax / expression of pro-apoptotic protein p53 / expression of anti-apoptotic protein Bcl-2: 48 h
Experimental: FIG. 6 sets forth data relating to xanthohumol and xanthoaurenol induce expression of proapoptotic proteins p53 and bax, with down-regulation of antiapoptotic proteins bcl-2 in BPH-1 cells. Western blot of pro-apoptotic proteins Bax and p53 and anti-apoptotic protein Bcl-2 were performed from whole cell lysates of BPH-1 cells treated with XN and XAL for 48 h. Blots are representative of three individual experiments.
Cells were lysed in RIPA buffer and whole cell lysate protein concentrations were determined using a detergent-compatible protein assay (BioRad, CA). Proteins (15-35 μg) were separated by SDS-PAGE under standard conditions and were transferred to a nitrocellulose membrane (Biorad, CA) at 300 mA for 2 h. Antibody dilutions were as follows: Bax (BD Pharmingen, 1:500 dilution), Bcl-2 (Santa Cruz Biotechnology, 1:1000 dilution), p53 (Santa Cruz Biotechnology, 1:1000 dilution), NFκB p65 (Santa Cruz Biotechnology, 1:1000 dilution), actin (Sigma, 1:5000 dilution). Actin was used to confirm equal protein loading between samples. Protein was detected using chemiluminescence reagents (Pierce, Rockford, Ill.) with image analysis on Alpha Innotech photodocumentation system (Alpha Innotech, Hayward, Calif.).

[4] = system: BPH-1 cells; experiment: Cell cycle analysis (propidium iodide flow cytometry) in BPH-1 cells; conditions: for cell cycle modification: 10 and 20 μM
Experimental: At various time points after treatment with XN and XAL, adherent and floating cells were collected and fixed in 70% ethanol at one million cells per aliqout. Samples were centrifuged at 500×g, washed with PBS, and resuspended in cellular DNA staining solution containing […] propidium iodide (Sigma, St Louis, Mo.) and 100 μg/mL RNase (Sigma, St Louis, Mo.) in PBS. After 30-min incubation at room temperature, cell populations were quantified using Guava personal cytometer. Data analysis was performed using Multi Cycle software (Phoenix Flow Systems, San Diego, Calif.).
In Table 1, Cells were treated with 0, 10 or 20 μM XN or XAL, as indicated, and harvested after 48 h. Attached and floating cells were fixed in 70% ethanol and stained with propidium iodide, and cell cycle kinetics were examined using the Guava PCA, followed by data analysis with Multi-Cycle software.

[5] = system: NFκB p65; experiment: Immunoblot of p65 nuclear protein in BPH-1 cells; conditions: 48 h
Experimental: (§6) FIG. 5 sets forth data relating to xanthohumol and xanthoaurenol inhibit NFκB activation in nuclear extracts of BPH-1 cells. Cells were treated with XN or XAL for 48 h. (A) Cells were harvested by scraping and then subjected to nuclear extraction. NFκB activation was determined using transcription factor binding ELISA as described in Section 2. Equal protein loading was confirmed using β-actin. Results are representative of two or more separate experiments. (B) BPH-1 cells were treated with XN or XAL for 48 h and detection of p65 nuclear protein was performed with immunoblotting methods. (C) No inhibition of NFκB activation in treated PC3 cells. Results are mean±SD, n=3. **P<0.01.
Cells were lysed in RIPA buffer and whole cell lysate protein concentrations were determined using a detergent-compatible protein assay (BioRad, CA). Proteins (15-35 μg) were separated by SDS-PAGE under standard conditions and were transferred to a nitrocellulose membrane (Biorad, CA) at 300 mA for 2 h. […] Protein was detected using chemiluminescence reagents (Pierce, Rockford, Ill.) with image analysis on Alpha Innotech photodocumentation system (Alpha Innotech, Hayward, Calif.).

[6] = system: PC-3 cells; experiment: Multicaspase assay (SR-VAD-FMK/7AAD flow cytometry) in PC-3 cells; conditions: 48 h
Experimental: as §1
as §2, with “Cells were trypsinized, washed in D-PBS and stained with Annexin V, sulforhodamine-valyl-alanyl-aspartyl-fluoromethyl-ketone (SR-VAD-FMK), and 7-amino-actinomycin D (7AAD) according to the manufactures instructions.” left out

[7] = system: PC-3 cells; experiment: Cell viability by MTT assay in PC-3 cells; conditions: PC3 cells, 48 h; for cell viability (number of viable cells): MTT
Experimental: as §3, §4, §5

[8] = system: NFκB; experiment: NFκB activation, transcription factor binding ELISA, PC3 cells
Experimental: as §6
(§7) NFκB Activity was measured using Trans AM NFκB p65/p50 Transcription Factor Assay Kit (Active Motif, CA). Cytosolic and nuclear extracts were prepared from cells by using Nuclear Extraction Kit (Active Motif, Carlsbad, Calif.). Nuclear extract samples (10 μg) were added to a 96 well plate with immobilized oligonucleotide containing the NFκB consensus site (5′-GGGACTTTCC-3′). Sample wells were incubated with primary antibody specific for NFκB, followed by incubation with an HRP-conjugated secondary antibody, followed by quantification at OD 580 using a plate reader (Molecular Devices, Sunnyvale, Calif.).

[9] = system: NFκB; experiment: NFκB activation, transcription factor binding ELISA, nuclear extracts of BPH-1 cells; conditions: 20 μM, 48 h
Experimental: as §6, §7

[10] = system: BPH-1 cells; experiment: Annexin V (nexin) apoptosis assay in BPH-1 cells; conditions: 20 μM
Experimental: FIG. 4 sets forth data relating to xanthohumol and xanthoaurenol induction of apoptosis in BPH-1 and PC-3 cells. Cells were treated with XN and XAL and apoptosis was detected using the Annexin V assay. Externalization of phosphatidyl serine, an early marker of apoptosis was detected by flow cytometry after staining with Annexin V-PE and 7AAD. Annexin V(+) 7AAD(−) cells are undergoing early apoptosis, and Annexin V(+) 7AAD(+) are undergoing late apoptosis. Values are mean±SD, n=3. *P<0.05, **P<0.01.
as §2

[11] = Cell viability by MTT assay in BPH-1 cells; conditions: human
Experimental: as §3, §4, §5

[12] = Cell viability by MTT assay in PC-3 cells; conditions: human
Experimental: as §3, §4, §5

Compound	SR-VAD-FMK(+) 7AAD(+) cells (late apoptosis) [1]	SR-VAD-FMK(+) 7AAD(−) cells (caspase activation, early to mid stage apoptosis) [1]	cell viability (number of viable cells) [2]	viability decreased to ([2]; concentration of XAL not given) [%]	expression of pro-apoptotic protein Bax [3]	expression of pro-apoptotic protein p53 [3]	expression of anti-apoptotic protein Bcl-2 [3]	G1, percentage of cells in phase ([4]; 20 μM, 48 h, mean ± SE, n=3) [%]	cell cycle modification [4]	NFκB p65 protein levels in the nuclear fraction [5]	SR-VAD-FMK stained cells (caspase activation) [6]	cell viability (number of viable cells) [7]	viability decreased to ([7]; concentration of XAL not given) [%]	NFκB activation [8]	decrease in NFκB activity [9] [%]	Annexin V(+) 7AAD(+) cells (late apoptosis) [10]	Annexin V(+) 7AAD(−) cells (early apoptosis) [10]	cytotoxicity at 48 h, 20 μM [11] [%]	increase in expression of Bax and p53 compared with XAL [3]	cytotoxicity at 48 h, 20 μM [12] [%]
COc1cc(O)c(CC=C(C)C)c2c1C(=O)/C(=C/Oc1ccc(O)cc1)O2 [XAL, xanthoaurenol]	increase	increase	dose-dependent decrease in number of viable	81	Increase	Increase	decreased expression	45.730 ± 1.376	clear accumulation in the S phase	increased	increase only in late apoptotic SR-VAD-FMK(+) 7AAD(+) cells	dose-dependent decrease in number of viable	55	No inhibition	42	increase	increase			
COc1cc(O)c(CC=C(C)C)c(O)c1C(=O)/C=C/c1ccc(O)cc1 [XN, xanthohumol]	increase	increase	dose-dependent decrease in number of viable		Increase	Increase	decreased expression		clear accumulation in the S phase	increased	increase only in late apoptotic SR-VAD-FMK(+) 7AAD(+) cells	dose-dependent decrease in number of viable		No inhibition	42	increase	increase	80	larger increase in expression of Bax and p53 than did treatment with XAL	43
O=C(O[C@@H]1Cc2c(O)cc(O)cc2O[C@@H]1c1cc(O)c(O)c(O)c1)c1cc(O)c(O)c(O)c1 [epigallocatechin gallate, reference compound]			did not significantly decrease cell viability																	
